Data taken from patent publication US4503256A, “Phlorophenone derivatives, processes for preparing such compounds, uses and pharmaceutical compositions of phlorophenone compounds” (Noristan Limited, priority 1981, dated 1985).
≈ marks a conversion by molar mass, not a printed value. Read-outs that look alike come from different tables or passages of the source.

Key:
[1] = system: S. AUREUS; assay: Minimum Inhibitory Concentration (MIC), broth dilution in Brain Heart Infusion broth; assay type: cell-based, Staphylococcus aureus; settings: for MIC: Staphylococcus aureus, read-out: MIC S. AUREUS
Protocol: (§1) For testing against the bacteria, concentrations of each of the compounds were prepared in Brain Heart Infusion broth (Oxoid CM225) in two-fold steps from 1000 μg/ml to 1 μg/ml. Solutions containing 1000 μg/ml were prepared by dissolving 20 mg of each compound in 5 ml of acetone and this was then made up to 20 ml with Brain Heart Infusion Broth. Serial two-fold dilutions were then prepared in the broth down to 1 μg/ml.
(§2) For testing against the bacteria each of the prepared test concentrations and acetone controls prepared in Brain Heart Infusion were dispensed in 2 ml amounts for each organism. A growth control of 2 ml of Brain Heart Infusion was included in each series.
(§3) To each of the prepared sets of concentrations of each compound were added 0.1 ml aliquots of the organism suspensions prepared as described previously. All the bottles were incubated at 37° C. for 48 hours in the case of the bacteria and from 5 to 15 days for the fungi (until growth controls had grown in each case).
(§4) After incubation the broths were examined for evidence of growth. The lowest concentration of the test compound which prevented growth was recorded as the Minimum Inhibitory Concentration (MIC).

[2] = system: St. PYOGENES; assay: as above; assay type: cell-based; settings: 37° C., 48 hours; for MIC: Streptococcus pyogenes
Protocol: as §1, §2, §3, §4

[3] = system: C. ALBICANS; assay: Minimum Inhibitory Concentration (MIC), dilution in Sabouraud liquid medium; assay type: cell-based; settings: 37° C., 5 to 15 days; for MIC: Candida albicans
Protocol: (§5) For testing against the fungi, concentrations of each of the compounds were prepared in Sabouraud liquid medium in two-fold steps from 100 μg/ml to 0.1 μg/ml. 500 μg/ml solutions were prepared by dissolving 10 mg in 5 ml of acetone, made up to 20 ml with Sabouraud liquid medium. 4 ml of the 500 μg/ml concentration was then made up to 20 ml with Sabouraud liquid medium to give a concentration of 100 μg/ml. Serial two-fold dilutions were prepared from this in the same medium down to 0.1 μg/ml.
(§6) For the fungi the same procedure was followed using the concentrations made up in Sabouraud liquid medium. The Nystatin concentrations were also dispensed in 2 ml amounts for each organism. Growth controls of Sabouraud liquid medium were included in each series.
as §3, §4

[4] = system: Mic. CANIS; assay: as above; assay type: cell-based; settings: 37° C., 5 to 15 days; for MIC: Microsporum canis
Protocol: as §5, §6, §3, §4

[5] = system: Sp. SCHENKII; assay: as above; assay type: cell-based; settings: 37° C., 5 to 15 days
Protocol: as §5, §6, §3, §4

[6] = system: Tr. MENTAGROPHYTES; assay: as above; assay type: cell-based; settings: 37° C., 5 to 15 days; for MIC: Trichophyton mentagrophytes
Protocol: as §5, §6, §3, §4

[7] = system: Tr. RUBRUM; assay: as above; assay type: cell-based; settings: 37° C., 5 to 15 days; for MIC: Trichophyton rubrum
Protocol: as §5, §6, §3, §4

[8] = system: CD-1 mice; assay: Acute oral toxicity in CD-1 mice; assay type: in vivo; settings: male and female CD-1 mice, dose levels 1000, 464, 215 and 100 mg/kg, 7 days observation
Protocol: (§7) Male and female CD-1 mice were fasted for 18 hours prior to the experiment, but water was available ad libitum except during the observation period. The test compounds were prepared in 1% tragacanth and were administered orally to groups of two male and two female mice.
(§8) All compounds were tested at dose levels of 1000, 464, 215 and 100 mg/kg. Immediately after dosing, the mice were replaced in their "home" cage and were observed daily for 7 days post dose and any mortalities recorded.
(§9) The acute toxicities, as determined by the above procedure, of a number of representative compounds are given in the accompanying table.

[9] = Acute oral toxicity in CD-1 mice; assay type: in vivo; settings: mouse, in vivo, male and female CD-1 mice, dose levels 1000, 464, 215 and 100 mg/kg, 7 days observation
Protocol: as §7, §8, §9

[10] = system: bacteria; settings: literature (W. Riedl); cited from earlier work
[11] = 37° C., 48 hours, Brain Heart Infusion broth

| Molecule | MIC S. AUREUS [1, 11] | MIC St. PYOGENES [2] | MIC C. ALBICANS [3] | MIC Mic. CANIS [4] | MIC Sp. SCHENKII [5] | MIC Tr. MENTAGROPHYTES [6] | MIC Tr. RUBRUM [7] | LD50 [8] | MIC [1, 11] | MIC [2] | MIC [3] | MIC [4] | MIC [5] | MIC [6] | MIC [7] | LD50 at 168 h [9] | antibiotic / antibacterial activity (in words) [10] | MIC ([1]; 48 h) |
| --- | --- | --- | --- | --- | --- | --- | --- | --- | --- | --- | --- | --- | --- | --- | --- | --- | --- | --- |
| either 7-butyryl-4,6-dihydroxy-2-methyl-2,3-dihydrobenzofuran or 5-butyryl-4,6-dihydroxy-2-methyl-2,3-dihydrobenzofuran [Compound 35] | 125 µg/mL | 32 µg/mL | 25 µg/mL | 12,5 μg/ml | 50 µg/mL | 25 µg/mL | 25 µg/mL | > 1000 |  |  |  |  |  |  |  |  |  |  |
| CC(C)CCC(=O)c1c(O)cc(O)c2c1OC(C)(C)CC2 [Compound 31, 5,7-Dihydroxy-2,2-dimethyl-8-isocaproylchroman] |  |  |  |  |  |  |  |  | 16 µg/mL (≈ 54.7 µM) | 8 µg/mL (≈ 27.4 µM) | 100 µg/mL (≈ 342 µM) | 13 µg/mL (≈ 44.5 µM) | 6 µg/mL (≈ 20.5 µM) | 6 µg/mL (≈ 20.5 µM) | 25 µg/mL (≈ 85.5 µM) | > 1000 mg/kg |  |  |
| CC(C)=CCC1=C(O)C(C(=O)CC(C)C)=C(O)C(CC=C(C)C)(CC=C(C)C)C1=O [lupulone] |  |  |  |  |  |  |  |  |  |  |  |  |  |  |  |  | certain antibiotic properties |  |
| C=CCc1c(O)cc(O)c(C(=O)CC)c1O [Compound 15] |  |  |  |  |  |  |  |  | 250 µg/mL (≈ 1120 µM) | 125 µg/mL (≈ 562 µM) | 100 µg/mL (≈ 450 µM) | 50 µg/mL (≈ 225 µM) | 50 µg/mL (≈ 225 µM) | 25 µg/mL (≈ 112 µM) | 50 µg/mL (≈ 225 µM) | > 1000 mg/kg |  |  |
| CC(C)=CCc1c(O)cc(O)c(C(=O)CCC(C)C)c1O [Compound 7, 2-Isocaproyl-4-(3-methylbuten-2-yl)phloroglucinol] |  |  |  |  |  |  |  |  | 16 µg/mL (≈ 54.7 µM) | 8 µg/mL (≈ 27.4 µM) | 25 µg/mL (≈ 85.5 µM) | 6 µg/mL (≈ 20.5 µM) | 25 µg/mL (≈ 85.5 µM) | 6 µg/mL (≈ 20.5 µM) | 6 µg/mL (≈ 20.5 µM) | 1000 mg/kg |  |  |
| C=CCc1c(O)cc(O)c(C(=O)CCCCC)c1O [Compound 18] |  |  |  |  |  |  |  |  | 16 µg/mL (≈ 60.5 µM) | 8 µg/mL (≈ 30.3 µM) | 13 µg/mL (≈ 49.2 µM) | 6 µg/mL (≈ 22.7 µM) | 13 µg/mL (≈ 49.2 µM) | 6 µg/mL (≈ 22.7 µM) | 13 µg/mL (≈ 49.2 µM) | > 1000 mg/kg |  |  |
| CC(C)=CCc1c(O)cc(O)c(C(=O)Cc2ccccc2)c1O [Compound 6, 2Phenylacetyl-4-(3-methylbuten-2-yl)phloroglucinol] |  |  |  |  |  |  |  |  | 250 µg/mL (≈ 800 µM) | 8 µg/mL (≈ 25.6 µM) | > 100 µg/mL | 50 µg/mL (≈ 160 µM) | 50 µg/mL (≈ 160 µM) | 100 µg/mL (≈ 320 µM) | 25 µg/mL (≈ 80 µM) | > 1000 mg/kg |  |  |
| CC(C)=CCc1c(O)cc(O)c(C(=O)Cc2ccc(Cl)cc2)c1O [Compound 14, 2-(4-Chlorophenyl)acetyl-4-(3-methylbuten-2-yl)phloroglucinol] |  |  |  |  |  |  |  |  | 16 µg/mL (≈ 46.1 µM) | 8 µg/mL (≈ 23.1 µM) | 100 µg/mL (≈ 288 µM) | 50 µg/mL (≈ 144 µM) | 100 µg/mL (≈ 288 µM) | 100 µg/mL (≈ 288 µM) | > 100 µg/mL | 1000 mg/kg |  |  |
| CCCCCCCCC(=O)c1c(O)cc(O)c(Cc2ccccc2)c1O [Compound 27, 2-Nonanoyl-4-benzylphloroglucinol] |  |  |  |  |  |  |  |  |  | 1 µg/mL (≈ 2.81 µM) | 100 µg/mL (≈ 281 µM) | 50 µg/mL (≈ 140 µM) | 50 µg/mL (≈ 140 µM) | 5 µg/mL (≈ 14 µM) | > 100 µg/mL | > 1000 mg/kg |  | 2 µg/mL (≈ 5.61 µM) |
| CCCCCCCCC(=O)c1c(O)cc2c(c1O)CCC(C)(C)O2 [Compound 34, 5,7-dihydroxy-2,2-dimethyl-6-nonanoyl chroman] |  |  |  |  |  |  |  |  | 500 µg/mL (≈ 1490 µM) | 4 µg/mL (≈ 12 µM) | 100 µg/mL (≈ 299 µM) | > 100 µg/mL | > 100 µg/mL | > 100 µg/mL | 100 µg/mL (≈ 299 µM) | > 1000 mg/kg |  |  |
| CC(C)=CCC1=C(O)C(O)(CC=C(C)C)C(=O)C(C(=O)CC(C)C)=C1O (centres unmarked) [humulon] |  |  |  |  |  |  |  |  |  |  |  |  |  |  |  |  | certain antibiotic properties |  |
| CCCCCCCCC(=O)c1c(O)cc(O)c2c1OC(C)(C)CC2 [Compound 32, 5,7-Dihydroxy-2,2-dimethyl-8-nonanoyl chroman] |  |  |  |  |  |  |  |  | 64 µg/mL (≈ 191 µM) | < 1 µg/mL | 100 µg/mL (≈ 299 µM) | 100 µg/mL (≈ 299 µM) | 100 µg/mL (≈ 299 µM) | > 100 µg/mL | > 100 µg/mL | > 1000 mg/kg |  |  |
| C=CCc1c(O)cc(O)c(C(=O)CCC(C)C)c1O [Compound 19] |  |  |  |  |  |  |  |  | 16 µg/mL (≈ 60.5 µM) | 4 µg/mL (≈ 15.1 µM) | 25 µg/mL (≈ 94.6 µM) | 6 µg/mL (≈ 22.7 µM) | 13 µg/mL (≈ 49.2 µM) | 13 µg/mL (≈ 49.2 µM) | 6 µg/mL (≈ 22.7 µM) | > 1000 mg/kg |  |  |
| CCCC(=O)c1c(O)c2c(c(C(=O)CCC)c1O)OC(C)(C)CC2 [Compound 36, 5,7-Dihydroxy-6,8-dibutyryl-2,2-dimethylchroman] |  |  |  |  |  |  |  |  | 250 µg/mL (≈ 748 µM) | 64 µg/mL (≈ 191 µM) | 100 µg/mL (≈ 299 µM) | 100 µg/mL (≈ 299 µM) | 100 µg/mL (≈ 299 µM) | 100 µg/mL (≈ 299 µM) | 100 µg/mL (≈ 299 µM) | > 1000 mg/kg |  |  |
| CCCCCCCC(=O)c1c(O)cc(O)c(CC=C(C)C)c1O [Compound 11, 2-Octanoyl-4-(3-methylbuten-2-yl)phloroglucinol] |  |  |  |  |  |  |  |  | 64 µg/mL (≈ 200 µM) | 2 µg/mL (≈ 6.24 µM) | 100 µg/mL (≈ 312 µM) | 50 µg/mL (≈ 156 µM) | > 100 µg/mL | 100 µg/mL (≈ 312 µM) | 50 µg/mL (≈ 156 µM) | 597 mg/kg |  |  |
| CCCCC(=O)c1c(O)cc(O)c(CC=C(C)C)c1O [Compound 4, 2-Valeryl-4-(3-methylbuten-2-yl)phloroglucinol] |  |  |  |  |  |  |  |  | 64 µg/mL (≈ 230 µM) | 16 µg/mL (≈ 57.5 µM) | 25 µg/mL (≈ 89.8 µM) | 13 µg/mL (≈ 46.7 µM) | 25 µg/mL (≈ 89.8 µM) | 13 µg/mL (≈ 46.7 µM) | 13 µg/mL (≈ 46.7 µM) | > 1000 mg/kg |  |  |
| C=CCc1c(O)cc(O)c(C(=O)CCCC)c1O [Compound 17] |  |  |  |  |  |  |  |  | 64 µg/mL (≈ 256 µM) | 16 µg/mL (≈ 63.9 µM) | 25 µg/mL (≈ 99.9 µM) | 6 µg/mL (≈ 24 µM) | 25 µg/mL (≈ 99.9 µM) | 13 µg/mL (≈ 51.9 µM) | 13 µg/mL (≈ 51.9 µM) | > 1000 mg/kg |  |  |
